Test results as given in article PMC10482825 (Scientific Reports, 2023).
≈ marks a conversion by molar mass, not a printed value. Where “and” joins values, the source holds several entries; their conditions need not be identical. Identical values can stand only once. Where a SMILES comes first, the peptide text is derived from it.

Assays:
HeLa = format: cell-based, human; settings: 24 h, serum-free medium, MTT, 37 °C, 5% CO2; mean ± SD
Method: (§1) The used mammalian cell lines in our study were colorectal adenocarcinoma (Caco2, ATCC-HTB-37), colorectal carcinoma (HCT 116, ATCC-CCL-247), lung carcinoma (A549, ATCC- CCL-185), cervical cancer cells (HeLa, ATCC-CCL-2), neuroblastoma (SH-SY5Y, ATCC- CRL-2266), rhabdomyosarcoma (RD, ATCC- CCL-136) and human embryonic kidney cells (HEK 293, ATCC- CRL-1573). All the cells were maintained into Dulbecco’s Modified Eagle’s Medium (DMEM) supplemented with 10% heat-inactivated fetal bovine serum, 2 mM L-Glutamine, 100 U/ml penicillin–streptomycin (Pen/Strep) at 37 °C in 5% CO2 humidified incubator.
(§2) First, the cytotoxic effect of 24 h serum deprivation on all the selected cell lines was evaluated by MTT assay, following standard protocols. Briefly, cells were seeded and maintained at 37 °C and 5% CO2 in 24-well plates until they reached 75–80% confluency (zero time). Following washing twice with 1X PBS, cells were incubated in a serum-free medium for 24 h, under the same incubation conditions. The cell viability percentages were calculated and compared to zero time as 100% viability to nullify any possible effects of serum deprivation. Thence, the cell viability percentage of each cell line in response to 24 h treatment with different concentrations of each cryptide in serum-free medium was calculated. […] All the measured cell viability percentages were normalised against the corresponding negative controls.

Caco-2 = format: cell-based, human; settings: 24 h, serum-free medium, MTT, 37 °C, 5% CO2; mean ± SD
Method: as §1, §2

C. albicans = format: cell-based, Candida albicans (TIMM, 1768); settings: micro-broth dilution, 3 h peptide treatment then MHB 18 h, 37 °C, OD 600 nm
Text: (§3) The microbial strains used in this study were Bacillus subtilis (ATCC, 11774), Candida albicans (TIMM, 1768), Enterococcus faecalis (ATCC, 33186), Escherichia coli (ATCC, 11775), Klebsiella pneumoniae (ATCC, 13883), Methicillin-resistant Staphylococcus aureus (ATCC, BAA-41), Pseudomonas aeruginosa (ATCC, 10145), Salmonella enterica (ATCC, 14028), Serratia marcescens (ATCC, 13880), Staphylococcus aureus (ATCC, 25923) and Vibrio parahaemolyticus (ATCC, 17802). All microbial strains were cultivated overnight at 37 °C and 200 rpm, then subcultured and incubated for 3 h under the same incubation conditions to obtain the mid-logarithmic growth phase. The cultivated cells were washed twice with 10 mM Tris–HCl containing 5 mM D-glucose at pH 7.4 and suspended in the same buffer to be used in different assays, as previously described.
(§4) As a conclusive quantitative assessment, broth microtiter assay was used to determine the MIC values of each cryptide against B. subtilis, MRSA, S. enterica, P. aeruginosa, V. parahaemolyticus and C. albicans by following the guidelines of the Clinical and Laboratory Standards Institute (CLSI)[67], with slight modifications. Eighty microliters of 5 × 10^4 CFU/ml of each pathogen were dispensed into a 96-well polypropylene microtiter plate. The wells were then treated with 20 µl of serially diluted cryptides for 3 h at 37 °C. Gentamicin was used for positive controls at 0.2 mg/ml while an equivalent volume of acidified water was used for negative controls. The plates were then topped up with a final concentration of 1 × Mueller Hinton Broth (MHB) and incubated for 18 h under the same incubation conditions. MIC was detected as the lowest concentration of each cryptide that prevents the optically detectable microbial growth at OD = 600 nm.

B. subtilis = format: cell-based, Bacillus subtilis (ATCC, 11774); settings: micro-broth dilution, 3 h peptide treatment then MHB 18 h, 37 °C, OD 600 nm
Text: as §3, §4

RD = format: cell-based; settings: 24 h, serum-free medium, MTT, 37 °C, 5% CO2; mean ± SD
Method: as §1, §2

[1] = format: cell-based; settings: 24 h, serum-free medium, MTT, 37 °C, 5% CO2; mean ± SD; read-out: IC50 (µM) A459
Method: as §1, §2

S. enterica [2] = format: cell-based, Salmonella enterica (ATCC, 14028); settings: micro-broth dilution, 3 h peptide treatment then MHB 18 h, 37 °C, OD 600 nm
Text: as §3, §4

P. aeruginosa = format: cell-based, Pseudomonas aeruginosa (ATCC, 10145); settings: 20 µl of wells without growth on agar, 18 h, 37 °C
S. enterica [3] = format: cell-based, Salmonella enterica (ATCC, 14028); settings: 20 µl of wells without growth on agar, 18 h, 37 °C
MRSA = format: cell-based, Methicillin-resistant Staphylococcus aureus (ATCC, BAA-41); settings: micro-broth dilution, 3 h peptide treatment then MHB 18 h, 37 °C, OD 600 nm
Text: as §3, §4

[4] = tested on: S. enterica mature biofilm; test: Antibiofilm microtiter plate assay (mature biofilm, crystal violet); format: cell-based, Salmonella enterica (ATCC, 14028); settings: for Minimal biofilm eradication concentration (MBEC) S. enterica: tested 12.5-200 µM
Method: The antibiofilm activities of the selected cryptides against S. enterica and MRSA mature biofilms were examined by microtiter plate assay as previously described, with slight modification. During the mid-logarithmic phase, S. enterica and MRSA were suspended at the density of 1.7 × 10^8 CFU/ml in MHB. Then 100 µl of each bacterial suspension was dispensed into a vinyl 96 U-shaped-well plate and incubated overnight at 37 °C. The mature biofilms were washed with 10 mM Tris–HCl containing 5 mM D-glucose at pH 7.4 and treated for 8 h with 100 µl of two-fold serially diluted cryptides, under the same incubation conditions. A sterile MHB medium was used as the positive control while an equivalent volume of acidified water was used to treat the negative controls. The treated biofilms were washed twice with the same washing buffer and stained with 0.1% crystal violet for 15 min followed by rinsing with sterile distilled water twice and then dried for 30 min at 37 °C. The stain was dissolved with 33% acetic acid and transferred to an optically clear 96-well flat bottom plate which was then measured at 600 nm.
Table S.4 Antibiofilm activities of the selected Cryptides against S. enterica and MRSA. Microbial cells were suspended at 1.7 X 10^8 CFU/ml density, during the mid-logarithmic phase in MHB. Then, 96 U-shaped -well plates were inoculated with 100 µl of microbial suspension and incubated for 48 h at 37 °C. The formed biofilms were washed with 10 mM Tris-HCl and treated with 100 µl of different concentrations of each peptide for 24 h. The treated biomasses were washed and fixed with methanol for 15 min at -20 °C before staining with 0.1 % crystal violet. The stained biofilms were dissolved in 100 µl of 33 % acetic acid and the quantities of crystal violet stains were determined by measuring absorbance at 600 nm as an indicator of the remaining biomass after treatment. Untreated cells were used as negative control [indicating 100 % biofilm integrity] while the sterile medium was used as a positive control [indicating 0 % biofilm integrity].
S. enterica MRSA S. enterica MRSA S. enterica MRSA S. enterica MRSA S. enterica MRSA

[5] = crystal violet, absorbance 600 nm, mean ± SD

| Compound | IC50 (HeLa) [µM] | IC50 (Caco-2) [µM] | MIC (µM) C. albicans (C. albicans) [µM] | MIC (µM) B. subtilis (B. subtilis) [µM] | IC50 (RD) [µM] | IC50 [1] [µM] | MIC (µM) S. enterica (S. enterica [2]) [µM] | MBC (µM) P. aeruginosa (P. aeruginosa) [µM] | MBC (µM) S. enterica (S. enterica [3]) [µM] | MIC (µM) MRSA (MRSA) [µM] | Minimal biofilm eradication concentration (MBEC) S. enterica [4] [µM] | Biofilm eradication S. enterica, 12.5 µM [4, 5] [%] | Biofilm eradication S. enterica, 25 µM [4, 5] [%] | Biofilm eradication S. enterica, 50 µM [4, 5] [%] | Biofilm eradication S. enterica, 100 µM [4, 5] [%] | Biofilm eradication S. enterica, 200 µM [4, 5] |
| --- | --- | --- | --- | --- | --- | --- | --- | --- | --- | --- | --- | --- | --- | --- | --- | --- |
| CC(C)C[C@H](NC(=O)[C@H](CCCNC(=N)N)NC(=O)[C@H](Cc1c[nH]c2ccccc12)NC(=O)[C@H](CCCNC(=N)N)NC(=O)[C@H](CC(C)C)NC(=O)[C@@H](N)Cc1ccccc1)C(=O)N[C@@H](CCCCN)C(=O)N[C@@H](Cc1ccccc1)C(=O)N[C@@H](CCCCN)C(=O)N[C@@H](CO)C(=O)N[C@@H](CCCCN)C(=O)N[C@H](C(=O)N[C@@H](Cc1c[nH]c2ccccc12)C(=O)N[C@@H](CS)C(=O)N1CCC[C@H]1C(=O)O)C(C)C [AD7] (H-FLRWRLKFKSKVWCP-OH) | 101.5 ± 0.9 | 11.2 ± 0.7 | 1.56 (≈ 3.11 µg/mL) | 0.39 (≈ 0.778 µg/mL) | 97.8 ± 0.2 | 8.5 ± 0.6 | 0.78 (≈ 1.56 µg/mL) | 25 (≈ 49.9 µg/mL) | 0.78 (≈ 1.56 µg/mL) | 3.12 (≈ 6.22 µg/mL) | 100 | – | – | – | – | – |
| CSCC[C@H](NC(=O)[C@H](CCCCN)NC(=O)CNC(=O)[C@H](CCCCN)NC(=O)[C@H](Cc1ccc(O)cc1)NC(=O)[C@H](CC(N)=O)NC(=O)[C@H](CC(C)C)NC(=O)[C@H](CCC(N)=O)NC(=O)[C@H](CC(C)C)NC(=O)[C@@H](N)CCCNC(=N)N)C(=O)N[C@@H](Cc1c[nH]c2ccccc12)C(=O)N[C@@H](CS)C(=O)N1CCC[C@H]1C(=O)NCC(=O)N[C@@H](Cc1c[nH]c2ccccc12)C(=O)O [AD11] (H-RLQLNYKGKMWCPGW-OH) | 16.8 ± 0.6 | 26.8 ± 0.4 | 25 (≈ 47 µg/mL) | 0.78 (≈ 1.47 µg/mL) | 19.2 ± 0.9 | 11.1 ± 0.7 | 1.56 (≈ 2.93 µg/mL) | > 50 | 1.56 (≈ 2.93 µg/mL) | 6.25 (≈ 11.8 µg/mL) | 200 | – | – | – | – | – |
| RHCLRSKRPPNVCPH [AD4, cationic cryptide from P. vannamei precursor DN34505 (Pl-crustin 2), chemically synthesised] | 10.8 ± 0.3 | 5.4 ± 0.7 | 25 | 1.56 | 15 ± 0.8 | 8.8 ± 1.1 | 3.12 | > 50 | 3.12 | 6.25 | – | 6.16 ± 2.7 | 12.58 ± 1.9 | 30.41 ± 1.9 | 45.13 ± 2 | 80.63 ± 1% and 80.63% |
